System: GBS laboratory strains
Assay: MBC90:MIC90 ratio method of determining antibiotic tolerance
Type: cell-based, Group B Streptococcus
Settings: for MBC / MIC / MIC90: Streptococcus; for MBC: 24 h, ≧90% non-viable cells, plate counts after 24 h antibiotic; for MIC: ≧90% growth-inhibited, OD600; for MIC90: for GBS, as stated under culture conditions
Procedure: The inventors ascertained the incidence of antibiotic tolerance in GBS clinical isolates collected from cervicovaginal-rectal swabs, by investigating cell wall inhibitors used to eliminate GBS colonization in pregnant women before delivery as stated by the CDC guidelines. A ratio of the minimum bactericidal concentration (MBC) over minimum inhibitory concentration (MIC) after 24 h of antibiotic incubation or by determining quantitative kill curves has been used to define antibiotic tolerance previously.
The MBC:MIC ratio was calculated for laboratory strains using three β-lactam antibiotics (Penicillin G, Ampicillin, and Cefazolin) and a glycopeptide antibiotic (Vancomycin) (Table 1). Early-log phase cultures of GBS were treated with the individual antibiotics at a concentration of 0.25 to 512×MIC90. The optical density (OD600) of antibiotic treated cultures was used to determine the MIC90 after 24 h and a cell count was used to determine their MBC90. Susceptible, tolerant and intermediate strains were defined by their MBC:MIC ratio of ≦2:1, ≧32:1 and 4:1-16:1 respectively. […] The ratios characterized GBS strains A909 and 2603V/R as Susceptible, O90R as Tolerant, and NEM316 as Intermediate to Penicillin, Ampicillin, and Cefazolin. All four strains were susceptible to Vancomycin.
(I) Bacterial Strains and Culture Conditions. GBS strains A909 (serotype IA), 515 (serotype IA), NEM316 (serotype III), COHI (serotype III), 2603V/R (serotype V) and O90R (non-typable) were used in this study. E. coli Top10 cells were used for the recombination experiments. GBS was cultured in Todd Hewitt broth (THB) or Tryptic Soy 5% sheep blood (TS) media and E. coli in Luria-broth (LB) medium or agar. Antibiotics were used at the following concentrations: for GBS—penicillin G (MIC90 0.06 μg ml^−1), ampicillin (MIC90 0.12 μg ml^−1), vancomycin (MIC90 2 μg ml^−1), cefazolin (MIC90 1 μg ml^−1) and chloramphenicol (5 μg ml^−1); for E. coli—ampicillin (50 μg ml^−1) and chloramphenicol (5 μg ml^−1). Both GBS and E. coli cultures were grown at 37° C. (II) Tolerance Using the MBC:MIC Ratio Method. Three GBS laboratory strains (i.e., A909, NEM316, and O90R) were cultured overnight for 18 h at 37° C. in THB. Subcultures in THB were subsequently grown to exponential phase (OD600˜0.3; i.e. 5×10^5 cfu/ml) at 37° C. Cell cultures were then exposed to different concentrations of antibiotics (Penicillin G, Ampicillin, Cefozolin or Vancomycin). […] Cell cultures were dispersed every 18 h before OD600 was measured to determine the lowest concentration of antibiotic with 90% growth inhibition (MIC90). Antibiotic treated cells (8 μl) from each well were re-suspended into PBS (100 μl) and plated (54 μl) on TS agar plates and allowed to grow for an additional 24 h at 37° C. Cell count was performed to determine the lowest concentration of antibiotic with 90% killing of original inoculums (MBC90). (III) Penicillin Killing and Regrowth Tolerance Assay by Microbroth Dilution. Three GBS laboratory strains (i.e., A909, NEM316, and O90R) were cultured overnight for 18 h at 37° C. in THB. Subcultures in THB were subsequently grown to exponential phase (OD600˜0.3) at 37° C. Cell cultures were then exposed to different concentrations of Penicillin G (Sigma, St. Louis, Mo.). […] Cell cultures were dispersed. A 1:20 dilution of cells was re-plated into new wells containing fresh THB with 500 U Penase (to degrade residual penicillin). Cell cultures were allowed to re-grow for an additional 24 h at 37° C. before the OD600 was measured. (IV) Measuring Cell Viability by Determining ATP Concentration. GBS strains were cultured for 18 h at 37° C. in THB. These cells were inoculated into fresh THB and subsequently allowed to grow to exponential phase (OD600 0.25-0.3) at 37° C. One ml of each culture was centrifuged at 5,000×g for 4 min. The cell pellet was re-suspended in ATP-free water. […]

Row | Compound | Ratio (MBC90:MIC90) (GBS strain 2603V/R) | Ratio (MBC90:MIC90) (GBS strain A909) | Ratio (MBC90:MIC90) (GBS strain NEM316) | MBC (GBS strain 2603V/R) [µg/mL] | MBC (GBS strain A909) [µg/mL] | MBC (GBS strain NEM316) [µg/mL] | MBC (GBS strain O90R) [µg/mL] | MIC (GBS strain 2603V/R) [µg/mL] | MIC (GBS strain A909) [µg/mL] | MIC (GBS strain NEM316) [µg/mL] | MIC (GBS strain O90R) [µg/mL] | MIC90 [µg/mL] | Ratio (MBC90:MIC90) (GBS strain O90R)
1 | CC1(C)S[C@@H]2[C@H](NC(=O)[C@H](N)c3ccccc3)C(=O)N2[C@H]1C(=O)O [Ampicillin] | 1 | 1 | 4 | 0.48 | 0.48 | 1.92 | 15.4 | 0.48 | 0.48 | 0.48 | 0.96 | 0.12 | –
2 | Cc1nnc(SCC2=C(C(=O)O)N3C(=O)[C@@H](NC(=O)Cn4cnnn4)[C@H]3SC2)s1 [Cefazolin] | 2 | 1 | 16 | 0.39 | 0.19 | 3.12 | 12.5 | 0.19 | 0.19 | 0.19 | 0.39 | 1 | 32
3 | CN[C@H](CC(C)C)C(=O)N[C@H]1C(=O)N[C@@H](CC(N)=O)C(=O)N[C@H]2C(=O)N[C@H]3C(=O)N[C@H](C(=O)N[C@H](C(=O)O)c4cc(O)cc(O)c4-c4cc3ccc4O)[C@H](O)c3ccc(c(Cl)c3)Oc3cc2cc(c3O[C@@H]2O[C@H](CO)[C@@H](O)[C@H](O)[C@H]2O[C@H]2C[C@](C)(N)[C@H](O)[C@H](C)O2)Oc2ccc(cc2Cl)[C@H]1O [Vancomycin] | 1 | 1 | 1 | 4 | 4 | 4 | 4 | 4 | 4 | 4 | 4 | 2 | 1
